# Read-outs that look alike come from different tables or passages of the source.
# Key:
# [1] = hydrogen peroxide not stabilized, cited from earlier work
# [2] = Stability test in propylene glycol (Brilliant Blue color dissipation); assay type: physicochemical; set-up: key: ++++: no color dissipation; +++: slightly dissipation; ++: obvious dissipation; +: totally dissipated
# [3] = Stability test in aqueous system (Brilliant Blue color dissipation); assay type: physicochemical; set-up: key: ++++: no color dissipation; +++: slightly dissipation; ++: obvious dissipation; +: totally dissipated
# [4] = System stability evaluation: compatibility of ingredients with peroxide source and the system; conditions: for Effect on peroxide and system stability: summary of testing of Tables 2 and 3
# [5] = propylene glycol, 2.76% carbamide peroxide, 0.002% Brilliant Blue, compound amount 0.1%, 60 days, room temperature
# [6] = water, 2.76% carbamide peroxide, 0.002% Brilliant Blue, compound amount 0.1%, 60 days, room temperature
# [7] = propylene glycol, 2.76% carbamide peroxide, 0.002% Brilliant Blue, compound amount 15%, 60 days, room temperature
# [8] = water, 2.76% carbamide peroxide, 0.002% Brilliant Blue, compound amount 15%, 60 days, room temperature
# [9] = propylene glycol, 2.76% carbamide peroxide, 0.002% Brilliant Blue, compound amount 1%, 60 days, room temperature
# [10] = water, 2.76% carbamide peroxide, 0.002% Brilliant Blue, compound amount 1%, 60 days, room temperature
# [11] = propylene glycol, 2.76% carbamide peroxide, 0.002% Brilliant Blue, compound amount 2%, 60 days, room temperature
# [12] = water, 2.76% carbamide peroxide, 0.002% Brilliant Blue, compound amount 2%, 60 days, room temperature
compound,measurement,setting,value
[Al+3] [Al (III)],"Oxygen lost % (24 hr, 100 C.)",[1]; metal ion added 10 ppm,2%
O=P([O-])([O-])OP(=O)([O-])[O-].[Ca+2].[Ca+2] [Calcium pyrophosphate],Color (color fading grade),[2],+
same,Color (color fading grade),[3],+
"N=C(NCCCCCCNC(=N)NC(=N)Nc1ccc(Cl)cc1)NC(=N)Nc1ccc(Cl)cc1 [Chlorhexydine, reference compound]",Color (color fading grade),[2]; [5],++
same,Color (color fading grade),[3]; [6],+
[Cu+2] [Cu(II)],"Oxygen lost % (24 hr, 100 C.)",[1]; metal ion added 0.01 ppm,24%
O=C([O-])CN(CCN(CC(=O)[O-])CC(=O)O)CC(=O)O.[Na+].[Na+] [Disodium EDTA],Color (color fading grade),[2]; [5],+++
same,Color (color fading grade),[3]; [6],+++
[Fe+3] [Fe(III)],"Oxygen lost % (24 hr, 100 C.)",[1]; metal ion added 10 ppm,15%
OCC(O)CO [Glycerin],Color (color fading grade),"[2]; propylene glycol, 2.76% carbamide peroxide, 0.002% Brilliant Blue, compound amount 20%, 60 days, room temperature",++
same,Color (color fading grade),"[3]; water, 2.76% carbamide peroxide, 0.002% Brilliant Blue, compound amount 20%, 60 days, room temperature",+
"CCCCCCCCCCCCCCCC[n+]1ccccc1.[Cl-] [Hexadecylpyridinium Chloride, Hexadecylpyridinium chloride, reference compound]",Color (color fading grade),[2]; [5],++
same,Color (color fading grade),[3]; [6],+
CC1CCC(C(C)C)C(O)C1 (centres unmarked) [Menthol],Color (color fading grade),[2]; [5],+++
same,Compatibility with the system (cationic biocide and peroxide source),[4],compatible
same,Color (color fading grade),[3]; [6],+++
"CCCCCCCCCC[N+](C)(C)CCCCCCCCCC.O=C1CC[C@@H](C(=O)[O-])N1 [PODA, Proline, 5-oxo-, ion(1-), N-decyl-N,N-dimethyl-1-decanaminium (1:1)]",Color (color fading grade),[2]; [5],++
same,Color (color fading grade),[3]; [6],+
O=C([O-])[O-].[Ca+2] [Precipitate calcium carbonate],Color (color fading grade),[2]; [7],+
same,Compatibility with the system (cationic biocide and peroxide source),[4],not compatible
same,Effect on peroxide and system stability,[4],activate the peroxide and make the system unstable
same,Color (color fading grade),[3]; [8],+
CCCCCCCCCCCCOS(=O)(=O)[O-].[Na+] [Sodium Dodecyl Sulfate],Color (color fading grade),[2]; [9],+
same,Compatibility with the system (cationic biocide and peroxide source),[4],incompatible
same,Effect on peroxide and system stability,[4],activate the peroxide and make the system unstable
same,Color (color fading grade),[3]; [10],+
O=P([O-])(O)OP(=O)([O-])O.[Na+].[Na+] [Sodium acid pyrophosphate],Color (color fading grade),[2]; [9],++
same,Color (color fading grade),[3]; [10],++
[F-].[Na+] [Sodium fluoride],Color (color fading grade),[2]; [5],+++
same,Color (color fading grade),[3]; [6],++
O=C1NS(=O)(=O)c2ccccc21.[Na] [Sodium saccharin],Color (color fading grade),[2],+++
same,Compatibility with the system (cationic biocide and peroxide source),[4],compatible
same,Color (color fading grade),[3],++
O=P(O)(O)OP(=O)(O)OP(=O)(O)O [Sodium tripolyphosphate],Color (color fading grade),"[2]; propylene glycol, 2.76% carbamide peroxide, 0.002% Brilliant Blue, compound amount 5%, 60 days, room temperature",+
same,Compatibility with the system (cationic biocide and peroxide source),[4],not compatible
OC[C@@H](O)[C@@H](O)[C@H](O)[C@@H](O)CO [Sorbitol],Color (color fading grade),"[2]; propylene glycol, 2.76% carbamide peroxide, 0.002% Brilliant Blue, compound amount 60%, 60 days, room temperature",+
same,Color (color fading grade),"[3]; water, 2.76% carbamide peroxide, 0.002% Brilliant Blue, compound amount 60%, 60 days, room temperature",+
OC[C@H]1O[C@H](O[C@]2(CCl)O[C@H](CCl)[C@@H](O)[C@@H]2O)[C@H](O)[C@@H](O)[C@H]1Cl [Sucralose],Color (color fading grade),"[2]; propylene glycol, 2.76% carbamide peroxide, 0.002% Brilliant Blue, compound amount 0.5%, 60 days, room temperature",+++
same,Compatibility with the system (cationic biocide and peroxide source),[4],compatible
same,Color (color fading grade),"[3]; water, 2.76% carbamide peroxide, 0.002% Brilliant Blue, compound amount 0.5%, 60 days, room temperature",++
O=P([O-])([O-])OP(=O)([O-])[O-].[Na+].[Na+].[Na+].[Na+] [Tetrasodium pyrophosphate],Color (color fading grade),[2],+
same,Compatibility with the system (cationic biocide and peroxide source),[4],not compatible
same,Color (color fading grade),[3],+
[Zn+2] [Zn(II)],"Oxygen lost % (24 hr, 100 C.)",[1]; metal ion added 10 ppm,10%
Cocamidopropyl betaine,Color (color fading grade),[2]; [11],++++
same,Color (color fading grade),[3]; [12],++++
Fatty Alcohol Polyoxyethylene Ether 9,Color (color fading grade),[2]; [11],+++
same,Compatibility with the system (cationic biocide and peroxide source),[4],compatible
same,Color (color fading grade),[3]; [12],+++
Lauryl glucoside,Color (color fading grade),[2]; [11],+
same,Color (color fading grade),[3]; [12],+
Natural calcium carbonate,Color (color fading grade),[2]; [7],+
same,Compatibility with the system (cationic biocide and peroxide source),[4],not compatible
same,Color (color fading grade),[3]; [8],+
Sucrose fatty acid ester,Color (color fading grade),[2]; [9],+
same,Color (color fading grade),[3]; [10],+

# Reference: US11576947B2, “Oral composition and method” (Kunming Lanchie Dental Hospital, LTD, priority 2019, dated 2023)
